In a melting point compilation (Tetko et al.; mined from patent text by program, amines drawn as free bases though some values may be those of a salt) one finds melting point data, which are given here for 88 compounds.

Residues, ends and D or L forms follow the SMILES beside them.

Regarding `CNC(=O)CN1CCc2ccc(Nc3ncc(Cl)c(Nc4ccc(N5CCOCC5)cc4OC)n3)cc2CC1`, the melting point lay within 169 to 176 °C.

`CCOC(=O)/C=C(C)/C=C/C=C(C)/C=C/c1c(C)oc(C)c1C` had a melting point of 89 to 91 °C.

For the compound `Cc1ccc2c(c1)CC(=O)c1cc(CC(=O)O)ccc1O2`, the melting point was 154 to 155 °C.

`COc1cccc(Cc2ccc3nc(N)nc(N)c3c2)c1` had a melting point of 207 to 209 °C.

`COc1cc(Cl)ccc1C(=O)NC1COCCn2c1nc(-c1ccncn1)cc2=O` (racemic) registered a melting point of 274 to 276 °C.

The compound `CCSc1ncc(S(N)(=O)=O)s1` registered a melting point of 95 to 96 °C.

For the compound `CC(C)C(NC(=O)Cn1cc(Cc2ccc(C(F)(F)F)cc2)cc(NC(=O)OCc2ccccc2)c1=O)C(=O)C(F)(F)F` (stereo not drawn), the melting point was 61 to 65 °C.

`Cn1nc(-c2c(Cl)cc(C(F)(F)F)cc2Cl)cc1N`: the melting point lay in the range of 161 to 163 °C.

Compound `Fc1ccc(CC(=S)N2CCCCC2)cc1` displayed a melting point of 65.5 to 67.5 °C.

`C=CCc1c(-c2cc(=O)c3c(O)cc(OCc4ccccc4)cc3o2)ccc(OC)c1O` had a melting point of 234 °C.

`CC(C)=C(C(=O)O)c1ccc(Cl)cc1` registered a melting point of 144 to 145 °C.

The compound `CC1(C)CCC(N)=CC1=O` came in with a melting point of 153 to 154 °C.

`CN1CCC(=O)N(c2cccc3ccccc23)C1=O`: the melting point lay within 228 to 229 °C.

`CCOC(=O)C=Cc1ccc2c(c1)c(-c1cc3cccnc3n1S(=O)(=O)c1ccc(C)cc1)cn2C` displayed a melting point of 159 to 162 °C.

On to `CC(=O)Nc1ccccc1NS(=O)(=O)c1cc(C(=O)O)cc(NCc2ccco2)c1Oc1ccccc1`, for which the melting point was in the range of 207 to 210 °C.

Compound `Cc1nccc2c1ccc(=O)n2C` displayed a melting point of 203 to 205 °C.

Take `Cc1c(C(=O)O)ccc(S(C)(=O)=O)c1C1=NOCC1`: the melting point is 182 to 184 °C.

For the compound `CCC(C)(C)c1ccc(OCC(=O)Nc2ccc(Nc3cccc(O)c3)cc2)c(C(C)(C)CC)c1`, the melting point was in the range of 150 to 152 °C.

As to `CC(C)(C)c1ccc(OP(Oc2ccc(C(C)(C)C)cc2C(C)(C)C)Oc2ccc(C(C)(C)C)cc2C(C)(C)C)c(C(C)(C)C)c1`, the melting point lay in the range of 181 to 186 °C.

As for `Cc1ccc(C(=O)OCC2OC(n3cc(C#C[Si](C)(C)C)c(=O)[nH]c3=O)CC2F)cc1` (stereo not drawn), the melting point came to 130 °C.

`OC(CNC1CCc2ccccc2C1)COc1ccccc1Cl` (stereo not drawn) displayed a melting point of 98 to 101 °C.

In turn, `Cc1ccc(S(=O)(=O)c2ccccc2)nc1` showed a melting point of 117 to 118 °C.

`CCOC(=O)Cc1cccc(-c2nc(COc3ccc(CO)cc3OC)c(C)o2)c1` returned a melting point of 96 to 98 °C.

Regarding `COc1ccc2ccc(C(O)C(F)(F)F)cc2c1` (stereo not drawn), the melting point was in the range of 85 to 87 °C.

For the compound `COc1cccc(NC(=O)OC2CN3CCC2CC3)c1` (stereo not drawn), the melting point was in the range of 130 to 132 °C.

`NC(=S)c1ccc(O)cc1O` displayed a melting point of 164 to 166 °C.

As to `BrCCOc1ccc2[nH]c3ccccc3c2c1`, the melting point lay in the range of 135 to 136 °C.

Compound `CCOCc1nc2c(N)nc3ccc(OCc4ccccc4)cc3c2n1CC(C)(C)NS(C)(=O)=O` came in with a melting point of 90 °C.

The compound `CCCCCCCCC1C=CC(/C=C/c2ccc(C(=O)O)o2)=C2N=C3CCCCC3=C21` (stereo not drawn) returned a melting point of 128 to 131 °C.

`CC(C)OC(=O)N1CCC(c2nc3cc(-c4ccc(-n5cnnn5)c(F)c4)ccc3o2)CC1` showed a melting point of 187 to 191 °C.

As to `c1ccc(-c2cc3cccc(CSCCN4CCCCC4)c3o2)cc1`, the melting point is 64.5 to 65.5 °C.

For `c1cc2c3c(cccc3c1)C(NOCCCCn1ccnc1)=N2`, the melting point lay within 126 to 128 °C.

In the case of `O=C(O)Cc1ccc(-n2cc(Br)cn2)cc1`, the melting point amounted to 187 °C.

As for `NC(=O)N(O)CCNC(=O)c1ccc(-c2ccccc2)cc1`, the melting point fell in the range of 160 to 162 °C.

`O=C(NCc1ccccc1)Nc1nnc(-c2ccc(CN3CCCCCC3)s2)o1`: the melting point is 184 to 185 °C.

Turning to `CCN1C(=O)C(C)(C)C(=O)N(C)c2cc(CCCN(CCn3ccc4ccoc4c3=O)Cc3cccnc3C)ccc21`, the melting point was 106 to 115 °C.

Regarding `O=C(C=Cc1ccccc1)N1CCc2c([nH]c3ccccc23)C12CCC(c1cccc(F)c1)(N1CCC1)CC2` (stereo not drawn), the melting point fell in the range of 120 to 126 °C.

As to `CCc1cc2c(c3ccc(O)cc13)OCc1cc(O)ccc1-2`, the melting point fell in the range of 184 to 192 °C.

In turn, `NC1N=C(N2CCCCC2)c2ccccc2NC1=O` (stereo not drawn) showed a melting point of 103 to 105 °C.

Regarding `COc1ccc(-c2cnn3c(N)c(-c4cccc(Cl)c4)c(C)nc23)cc1`, the melting point lay in the range of 171 to 172 °C.

The compound `CN(C)C=Nc1[nH]nc(Nc2cccc(Cl)c2)c1C#N` yielded a melting point above 260 °C.

Compound `Cc1c(Nc2cc(-c3cccc(C4NCCc5c4sc4c5CC(C)(C)C4)c3CO)cn(C)c2=O)cnn1C` (stereo not drawn) had a melting point of 164 to 165 °C.

Consider `CC1CN(c2c(F)cc3c(=O)c(C(=O)O)cn(C4CC4)c3c2Cl)CC1NC(=O)OC(C)(C)C` (stereo not drawn), for which the melting point lay in the range of 210 to 213 °C.

The compound `CC1CCc2c(N3CCNCC3)ccc3c2N1C=C(C(=O)O)C3` (stereo not drawn) yielded a melting point of 264 to 265 °C.

As for `N#Cc1c(N2CCc3ccccc3CC2)ncn(CCO)c1=O`, the melting point lay in the range of 167 to 171 °C.

Consider `CCOC(=O)CCNC(=O)c1cn2nc(NCCCN3CCC(OC(c4ccccc4)c4ccccc4)CC3)ccc2n1`, for which the melting point was 83 to 86 °C.

As for `COc1ccc(-c2ccc(C#N)cn2)cc1-c1nc2cc(C#N)ccc2[nH]1`, the melting point lay in the range of 316 to 319 °C.

The compound `CN[C@@]1(C)CCN(c2c(-c3ccccc3)c(C)c(C#N)c3nc(C(=O)N(C)C)oc23)C1` returned a melting point of 172 to 174 °C.

Compound `O=Cc1c2ccccc2cc2c(Cl)cccc12` had a melting point of 129 to 131 °C.

For `CC#CCOc1ccc(S(=O)(=O)N(C)C(C(=O)NO)C(C)(C)SCC(C)N(CC)CC)cc1` (stereo not drawn), the melting point lay within 65 to 68 °C.

In the case of `CCOC(=O)CN1C(=O)C(Br)CCc2ccccc21` (stereo not drawn), the melting point lay within 114 to 116 °C.

`Nc1nc2[nH]c(CCC#Cc3ccsc3C(=O)N[C@@H](CCC(=O)O)C(=O)O)cc2c(=O)[nH]1` came in with a melting point of 177 to 178 °C.

Regarding `FC(F)(F)c1nc[nH]n1`, the melting point came out at 89 °C.

With `COCn1ncc2cc(-c3nnc(SCc4cccc(C(F)(F)F)c4)o3)ccc21`, the melting point lay within 159 to 160 °C.

`Cc1ccccc1-c1nc(-c2ccc(Cl)cc2)n[nH]1`: the melting point lay in the range of 150 to 151 °C.

For the compound `C=Cc1c(N)nc(-c2ccc(Cl)c(OC)c2F)nc1C(=O)O`, the melting point was in the range of 167 to 168 °C.

In turn, `O=C1Nc2ccc(Br)cc2C12CCCCC2` registered a melting point of 196 to 199 °C.

`O=C1NCc2cccnc2N1c1cccc(I)c1` yielded a melting point of 175 to 177 °C.

Consider `CCCCCCCCNC1=NS(=O)(=O)c2cc(Cl)cnc2N1`, for which the melting point is 170 to 175 °C.

Turning to `COc1cc(NC(=O)c2ccc(Cl)cc2)c(C(N)=O)cc1OC`, the melting point lay in the range of 120 to 122 °C.

In turn, `Cc1cc(Cn2[nH]c(N)cc2=O)ccc1Cl` registered a melting point of 131 °C.

In turn, `N#Cc1ccc(-c2cc(-c3cc(Br)ccc3Cl)no2)cc1` had a melting point of 198 to 199 °C.

Take `CCOC(=O)C(NC(=O)CCl)c1cscn1` (stereo not drawn): the melting point is 145 to 146 °C.

In the case of `O=C(c1ncccc1OC1SCC(O)C(O)C1O)N1CCCCC1` (stereo not drawn), the melting point lay within 81 to 92 °C.

As to `O=C(NCc1ccc(Cl)c(Cl)c1)c1cn2c(=O)n(Cc3ccc(Cl)cc3)c(=O)cc2s1`, the melting point was in the range of 218 to 219 °C.

In turn, `CCOc1ccc2c(S(=O)(=O)c3ccc(O)cc3)c(C(C)C)cn2c1` came in with a melting point of 220 to 221 °C.

The compound `O=C(O)c1cn(C2CC2)c2nc(Cl)c(F)cc2c1=O` registered a melting point of 209 to 212 °C.

`CC(C)(C)OC(=O)N1CCC(CNC(=O)[C@@H]2CCCN2C(=O)OCc2ccccc2)CC1` had a melting point of 50 °C.

On to `COC(=O)c1ccc(CNS(C)(=O)=O)cc1S(=O)(=O)Cl`, for which the melting point was in the range of 93 to 94 °C.

Take `CCCCC(=N)Nc1ccccc1N1CCOCC1`: the melting point is 135 to 136 °C.

For the compound `O=C1NC(=O)C2(CCOc3ccc(F)cc32)S1` (stereo not drawn), the melting point lay in the range of 147 to 149 °C.

The compound `O=C(O)Cc1ccc(OCCNC(=O)C2Cc3ccccc3N2S(=O)(=O)c2ccc(-c3cc(C(F)(F)F)ccc3Cl)cc2)c(Cl)c1` (stereo not drawn) gave a melting point of 108 to 112 °C.

`CCNc1cccnc1N1CCN(Cc2cc(C)c(O)c(C)c2)CC1` returned a melting point of 203 to 206 °C.

`C#CCNC(=O)c1ccc(C(=O)OC)cc1` registered a melting point of 152 to 153 °C.

`Cc1cccc(Nc2cc(Nc3cccc(C)c3)ncn2)c1` displayed a melting point of 242 to 244 °C.

The compound `OCC1CCC(n2cnc3cc(Cl)c(Cl)cc32)C1` (stereo not drawn) yielded a melting point of 142 to 145 °C.

The compound `CCOC(=O)CN1C(=O)c2cccc3c(Sc4ccccc4)ccc(c23)C1=O` yielded a melting point of 132 to 134 °C.

`CCCCc1ncc(C=C2C(=O)N(CC(=O)OCC)c3ccccc32)n1Cc1ccc(C(=O)OC)cc1` returned a melting point of 118 to 119 °C.

For `CCCCc1n[nH]c(C(=O)O)c1Cc1ccc(-c2ccccc2-c2nc(=O)o[nH]2)cc1`, the melting point lay within 213 to 214 °C.

Compound `CP(C)(=O)COC(=O)c1ccc(-n2c(-c3ccccc3)cc3c2-c2ccccc2CC3)cc1` showed a melting point of 171 to 173 °C.

As to `COc1c(Cl)ccc(-c2nc(C(=O)OC(C)C)cc(Cl)c2Cl)c1F`, the melting point lay within 124 to 128 °C.

Turning to `CCn1nc(C(F)(F)F)c(CS(=O)(=O)C2=NOC(C)(CCl)C2)c1OC` (stereo not drawn), the melting point lay within 139 to 140 °C.

Compound `CCOc1cc(OCc2ccc(CN(C)C)o2)cc2c1C(=O)N(COC(=O)c1c(Cl)cccc1Cl)S2(=O)=O` showed a melting point of 157 to 158 °C.

Compound `O=[N+]([O-])C=C1CN=C(c2ccccc2)c2cc(Cl)sc2N1` gave a melting point of 154 to 156 °C.

For the compound `COC(=O)c1cc(OC)c(N=Nc2ccccc2)c(OC)c1`, the melting point lay in the range of 115 to 116 °C.

`COC(=O)C(Cc1ccccc1)NC(=O)C(CC(=O)O)NC(=O)CN` (stereo not drawn) (H-Gly-Asp-Phe-OMe; configuration not given here) registered a melting point of 233 to 235 °C.

`CCCCC(=O)Nc1c(C(=O)c2cccc(Cl)c2)[nH]c2cc(Cl)ccc12` gave a melting point of 159 to 160 °C.

Turning to `OC(c1ccccc1)c1ccc2[nH]nnc2c1` (stereo not drawn), the melting point was found to be 143 °C.

A word on the melting point: it is the temperature of the solid-liquid transition.
